What was measured:
Experiment in all cases: KINOMEscan
Type in all cases: binding
Details in all cases: read-out: %Ctrl @ 10000nM
CDK9 = target: T1, CDK9 (Homo sapiens, UniProt P50750)
T1 construct: purchased DiscoverX KINOMEscan

PIK3CA(Q546K) = target: T2, PIK3CA(Q546K) (Homo sapiens, UniProt P42336, Q546K)
T2 construct: purchased DiscoverX KINOMEscan

MAP4K3 = target: T3, MAP4K3 (Homo sapiens, UniProt Q8IVH8)
T3 construct: purchased DiscoverX KINOMEscan

MAP3K3 = target: T4, MAP3K3 (Homo sapiens, UniProt Q99759)
T4 construct: purchased DiscoverX KINOMEscan

JNK1 = target: T5, JNK1 (Homo sapiens, UniProt P45983)
T5 construct: purchased DiscoverX KINOMEscan

PFTK1 = target: T6, PFTK1 (Homo sapiens, UniProt O94921)
T6 construct: purchased DiscoverX KINOMEscan

AMPK-alpha2 = target: T7, AMPK-alpha2 (Homo sapiens, UniProt P54646)
T7 construct: purchased DiscoverX KINOMEscan

LATS1 = target: T8, LATS1 (Homo sapiens, UniProt O95835)
T8 construct: purchased DiscoverX KINOMEscan

MEK6 = target: T9, MEK6 (Homo sapiens, UniProt P52564)
T9 construct: purchased DiscoverX KINOMEscan

IRAK3 = target: T10, IRAK3 (Homo sapiens, UniProt Q9Y616)
T10 construct: purchased DiscoverX KINOMEscan

NEK3 = target: T11, NEK3 (Homo sapiens, UniProt P51956)
T11 construct: purchased DiscoverX KINOMEscan

[1] = target: T12, EGFR(L747-S752del, P753S) (Homo sapiens, UniProt P00533, DEL747-752/P753S)
T12 construct: purchased DiscoverX KINOMEscan
T12 sequence (P00533 with tags, fused parts or gaps DEL747-752/P753S limits assumed): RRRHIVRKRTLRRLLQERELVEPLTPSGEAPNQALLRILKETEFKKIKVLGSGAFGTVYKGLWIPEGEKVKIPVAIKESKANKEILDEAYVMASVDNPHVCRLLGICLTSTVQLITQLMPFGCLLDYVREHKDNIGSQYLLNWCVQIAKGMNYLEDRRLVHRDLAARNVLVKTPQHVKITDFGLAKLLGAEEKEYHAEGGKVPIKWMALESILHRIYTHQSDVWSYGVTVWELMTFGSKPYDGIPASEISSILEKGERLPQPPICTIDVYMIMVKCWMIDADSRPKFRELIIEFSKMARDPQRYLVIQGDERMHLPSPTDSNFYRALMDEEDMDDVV

T1 sequence (P50750 whole entry): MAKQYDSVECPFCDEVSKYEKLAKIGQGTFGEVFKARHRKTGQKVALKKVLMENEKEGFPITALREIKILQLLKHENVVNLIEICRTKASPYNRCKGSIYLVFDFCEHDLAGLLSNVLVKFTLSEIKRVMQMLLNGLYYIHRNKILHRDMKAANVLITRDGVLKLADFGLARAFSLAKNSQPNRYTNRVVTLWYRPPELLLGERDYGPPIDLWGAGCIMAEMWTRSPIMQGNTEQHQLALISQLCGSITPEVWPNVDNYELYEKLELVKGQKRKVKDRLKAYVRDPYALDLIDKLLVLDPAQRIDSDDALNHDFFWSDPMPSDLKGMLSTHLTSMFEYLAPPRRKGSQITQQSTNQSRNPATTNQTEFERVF
T6 sequence (O94921 whole entry): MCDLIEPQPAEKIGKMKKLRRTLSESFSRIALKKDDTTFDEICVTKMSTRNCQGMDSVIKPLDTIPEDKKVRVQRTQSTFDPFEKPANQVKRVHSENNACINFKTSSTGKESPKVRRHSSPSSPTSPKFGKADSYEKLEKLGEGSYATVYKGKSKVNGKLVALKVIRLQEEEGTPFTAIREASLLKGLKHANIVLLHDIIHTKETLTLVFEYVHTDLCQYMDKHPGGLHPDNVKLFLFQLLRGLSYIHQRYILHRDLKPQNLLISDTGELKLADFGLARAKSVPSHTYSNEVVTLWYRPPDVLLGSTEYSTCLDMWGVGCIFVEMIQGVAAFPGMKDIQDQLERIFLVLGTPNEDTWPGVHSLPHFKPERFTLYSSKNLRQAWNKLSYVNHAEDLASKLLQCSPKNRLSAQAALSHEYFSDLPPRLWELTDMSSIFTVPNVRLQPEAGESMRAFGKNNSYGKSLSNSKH
T5 sequence (P45983 whole entry): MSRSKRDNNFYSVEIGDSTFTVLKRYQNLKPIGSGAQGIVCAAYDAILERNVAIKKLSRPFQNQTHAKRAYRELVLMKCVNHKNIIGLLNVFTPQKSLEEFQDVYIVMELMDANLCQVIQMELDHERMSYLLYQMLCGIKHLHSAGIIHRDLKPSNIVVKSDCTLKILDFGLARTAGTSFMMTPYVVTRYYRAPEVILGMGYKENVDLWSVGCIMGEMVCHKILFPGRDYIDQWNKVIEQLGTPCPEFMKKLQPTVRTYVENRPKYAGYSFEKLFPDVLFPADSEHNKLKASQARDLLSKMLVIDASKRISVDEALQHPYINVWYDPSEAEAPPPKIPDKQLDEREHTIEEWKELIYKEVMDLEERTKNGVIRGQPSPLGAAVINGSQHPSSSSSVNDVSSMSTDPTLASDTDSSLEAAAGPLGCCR
T7 sequence (P54646 whole entry): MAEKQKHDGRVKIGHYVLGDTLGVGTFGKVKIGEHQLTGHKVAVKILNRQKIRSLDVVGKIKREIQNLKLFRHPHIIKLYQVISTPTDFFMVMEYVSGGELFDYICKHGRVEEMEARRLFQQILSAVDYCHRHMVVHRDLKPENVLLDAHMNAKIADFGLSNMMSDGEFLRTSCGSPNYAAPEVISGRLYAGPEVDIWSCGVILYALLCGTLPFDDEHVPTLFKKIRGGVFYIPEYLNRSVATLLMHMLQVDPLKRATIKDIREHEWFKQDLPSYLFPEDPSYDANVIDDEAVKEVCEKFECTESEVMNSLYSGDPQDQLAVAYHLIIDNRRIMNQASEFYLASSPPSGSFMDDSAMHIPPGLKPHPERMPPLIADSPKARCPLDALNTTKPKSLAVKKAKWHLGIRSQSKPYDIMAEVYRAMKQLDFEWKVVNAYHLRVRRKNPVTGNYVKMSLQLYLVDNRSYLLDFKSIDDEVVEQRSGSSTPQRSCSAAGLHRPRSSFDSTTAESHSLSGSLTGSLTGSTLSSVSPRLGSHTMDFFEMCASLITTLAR
T11 sequence (P51956 whole entry): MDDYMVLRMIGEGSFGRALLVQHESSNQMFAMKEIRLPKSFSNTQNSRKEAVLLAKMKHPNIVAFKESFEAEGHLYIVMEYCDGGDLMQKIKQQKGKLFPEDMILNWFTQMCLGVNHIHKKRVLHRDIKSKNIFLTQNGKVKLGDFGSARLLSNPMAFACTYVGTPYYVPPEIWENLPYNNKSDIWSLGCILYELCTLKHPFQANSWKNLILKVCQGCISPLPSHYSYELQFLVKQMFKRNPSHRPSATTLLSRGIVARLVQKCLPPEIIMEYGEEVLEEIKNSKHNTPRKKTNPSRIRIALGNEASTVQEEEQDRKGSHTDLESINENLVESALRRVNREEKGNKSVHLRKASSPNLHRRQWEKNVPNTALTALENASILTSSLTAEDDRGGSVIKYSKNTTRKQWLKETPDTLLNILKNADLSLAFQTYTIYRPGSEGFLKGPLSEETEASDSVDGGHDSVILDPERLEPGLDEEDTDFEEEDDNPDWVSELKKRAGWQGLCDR
T4 sequence (Q99759 whole entry): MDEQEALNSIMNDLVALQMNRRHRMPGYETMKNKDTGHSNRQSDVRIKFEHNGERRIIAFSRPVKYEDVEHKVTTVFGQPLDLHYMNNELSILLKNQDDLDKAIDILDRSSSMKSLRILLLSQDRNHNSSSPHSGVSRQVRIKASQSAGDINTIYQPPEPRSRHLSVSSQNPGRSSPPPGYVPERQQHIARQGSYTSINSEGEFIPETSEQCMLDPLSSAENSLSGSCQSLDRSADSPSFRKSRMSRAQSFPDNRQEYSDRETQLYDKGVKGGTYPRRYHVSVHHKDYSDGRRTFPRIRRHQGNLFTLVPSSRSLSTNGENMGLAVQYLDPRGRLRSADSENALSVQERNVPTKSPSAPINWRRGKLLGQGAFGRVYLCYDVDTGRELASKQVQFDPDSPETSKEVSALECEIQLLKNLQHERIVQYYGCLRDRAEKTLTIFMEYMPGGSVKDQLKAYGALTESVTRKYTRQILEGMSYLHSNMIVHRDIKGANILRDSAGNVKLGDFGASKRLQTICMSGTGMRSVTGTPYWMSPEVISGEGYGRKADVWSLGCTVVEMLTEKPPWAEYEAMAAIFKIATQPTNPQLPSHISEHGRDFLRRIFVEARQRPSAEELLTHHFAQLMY
T2 sequence (P42336 whole entry Q546K): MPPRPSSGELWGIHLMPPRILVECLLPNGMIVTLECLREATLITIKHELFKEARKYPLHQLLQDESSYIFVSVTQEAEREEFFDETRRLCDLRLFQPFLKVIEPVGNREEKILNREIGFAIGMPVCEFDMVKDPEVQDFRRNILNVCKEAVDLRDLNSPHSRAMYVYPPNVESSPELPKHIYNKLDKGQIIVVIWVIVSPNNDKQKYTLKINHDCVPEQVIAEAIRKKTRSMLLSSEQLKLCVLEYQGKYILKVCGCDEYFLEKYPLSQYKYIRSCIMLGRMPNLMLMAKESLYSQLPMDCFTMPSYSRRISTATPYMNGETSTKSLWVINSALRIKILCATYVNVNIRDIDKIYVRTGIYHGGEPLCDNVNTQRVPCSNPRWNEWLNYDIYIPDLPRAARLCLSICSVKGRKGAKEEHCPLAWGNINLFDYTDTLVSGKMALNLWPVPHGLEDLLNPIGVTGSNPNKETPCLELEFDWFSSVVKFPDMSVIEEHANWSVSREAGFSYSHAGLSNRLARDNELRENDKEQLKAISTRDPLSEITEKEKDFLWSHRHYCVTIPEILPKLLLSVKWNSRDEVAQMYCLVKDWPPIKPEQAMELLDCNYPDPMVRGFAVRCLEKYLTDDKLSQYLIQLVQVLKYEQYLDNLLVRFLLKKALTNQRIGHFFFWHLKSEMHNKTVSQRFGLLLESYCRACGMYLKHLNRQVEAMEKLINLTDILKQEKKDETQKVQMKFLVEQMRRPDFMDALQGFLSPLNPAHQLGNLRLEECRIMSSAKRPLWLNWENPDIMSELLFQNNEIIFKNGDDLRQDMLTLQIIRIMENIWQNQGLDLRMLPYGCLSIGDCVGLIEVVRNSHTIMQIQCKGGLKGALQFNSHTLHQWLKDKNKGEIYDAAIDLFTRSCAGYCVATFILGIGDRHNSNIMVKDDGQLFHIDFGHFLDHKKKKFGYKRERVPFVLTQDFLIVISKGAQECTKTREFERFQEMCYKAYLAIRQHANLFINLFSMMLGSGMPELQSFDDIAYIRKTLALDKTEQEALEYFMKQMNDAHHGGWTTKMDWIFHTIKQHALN
T9 sequence (P52564 whole entry): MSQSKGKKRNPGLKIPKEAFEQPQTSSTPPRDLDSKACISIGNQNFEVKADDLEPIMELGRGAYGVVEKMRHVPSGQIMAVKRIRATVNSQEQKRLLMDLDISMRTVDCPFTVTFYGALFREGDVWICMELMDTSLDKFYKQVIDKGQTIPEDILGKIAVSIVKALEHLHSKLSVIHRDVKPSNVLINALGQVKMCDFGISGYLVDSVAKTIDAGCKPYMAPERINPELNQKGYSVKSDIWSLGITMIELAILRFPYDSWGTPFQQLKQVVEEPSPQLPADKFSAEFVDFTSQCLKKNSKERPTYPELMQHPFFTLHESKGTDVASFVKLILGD

CC(C)c1ccc(CC(=O)N2CCN(c3ccc(C#N)nn3)CC2)cc1 [PZ-2891, 6-(4-(2-(4-isopropylphenyl)acetyl)piperazin-1-yl)pyridazine-3-carbonitrile]
remaining binding at 10 µM (CDK9): 98% | remaining binding at 10 µM (PIK3CA(Q546K)): 70% | remaining binding at 10 µM (MAP4K3): 94% | remaining binding at 10 µM (MAP3K3): 65% | remaining binding at 10 µM (JNK1): 62% | remaining binding at 10 µM (PFTK1): 92% | remaining binding at 10 µM (AMPK-alpha2): 100% | remaining binding at 10 µM (LATS1): 86% | remaining binding at 10 µM (MEK6): 94% | remaining binding at 10 µM (IRAK3): 42% | remaining binding at 10 µM (NEK3): 69% | remaining binding at 10 µM [1]: 100%

Source: PMC6199309, “A therapeutic approach to pantothenate kinase associated neurodegeneration” (Nature Communications, 2018)
